Laboratory results published in patent publication US20040018941A1, “Fused-benzene derivatives of thiouracil, herbicidal and desiccant compositions contaning them” (ISHIHARA SANGYO KAISHA, LTD., priority 2002, published 2004).

Legend:
Assay type in all cases: in vivo
Details in all cases: rating 0-100 (0 no damage, 100 complete death), 14 days after application
[1] = tested on: johnsongrass (Sorghum halepense, SORHA); assay: Pre-emerge herbicidal activity, greenhouse screen, SORHA
From the text: (§1) A standard greenhouse herbicide activity screening system was used to evaluate the herbicidal efficacy and crop safety of these test compounds. Seven broadleaf weed species including redroot pigweed (Amaranthus retroflexus, AMARE), velvetleaf (Abutilon theophrasti, ABUTH), sicklepod (Cassia obtusifolia, CASOB), ivyleaf morningglory (Ipomoea hederacea, IPOHE), lambsquarters (Chenopodium album, CHEAL), common ragweed (Ambrosia artemisiifolia L., AMBEL), and cocklebur (Xanthium strumarium, XANST) were used as test species. Four grass weed species including green foxtail (Setaria viridis, SETVI), barnyardgrass (Echinochloa crus-galli, ECHCG), johnsongrass (Sorghum halepense, SORHA), and large crabgrass (Digitaria sanguinalis, DIGSA) were also used. In addition, three crop species, field corn (Zea mays L., var. Dekalb 527, CORN), soybean (Glycine max L., var. Pella 86, SOY), and upland rice (Oryza sp., var. Tebonnet, RICE) were included.
(§2) All plants were grown in 10 cm square plastic pots which were filled with a sandy loam soil mix. For pre-emerge tests, seeds were planted one day prior to application of the test compounds. For post-emerge tests, seeds were planted 8-21 days prior to the test to allow emergence and good foliage development prior to application of the test substances. At the time of the post-emerge application, plants of all species were usually at the 2-3 leaf stage of development.
(§3) All test compounds were dissolved in acetone and applied to the test units in a volume of 187 l/ha. Test materials were applied at rates ranging from 15 g ai/ha to 1000 g ai/ha using a track sprayer equipped with a TJ8001 E even flow flat fan spray nozzle. Plants were arranged on a shelf so that the top of the canopy (post-emerge) or top of the soil surface (pre-emerge) was 40-45 cm below the nozzle. Pressurized air was used to force the test solution through the nozzle as it was mechanically advanced over the top of all test plants/pots. This application simulates a typical commercial field herbicide application.
(§4) In the post-emerge test, a commercial non-ionic surfactant was also included (0.25% v/v) to enhance wetting of the leaf surfaces of target plants. Immediately after application, test units of the pre-emerge applications were watered at the soil surface to incorporate the test materials.
(§5) At 14 days after application of the test materials, phytotoxicity ratings were recorded. A rating scale of 0-100 was used as previously described in Research Methods in Weed Science, 2nd edition, B. Truelove, Ed., Southern Weed Science Society, Auburn University, Auburn, Ala., 1977. Briefly, “0” corresponds to no damage and “100” corresponds to complete death of all plants in the test unit. This scale was used both to determine efficacy against weed species and damage to crop species. Herbicide activity data for various compounds of this invention, which are shown by compound No. in Tables 1-7, are shown in Tables 8 and 9.

[2] = tested on: large crabgrass (Digitaria sanguinalis, DIGSA); assay: Post-emerge herbicidal activity, greenhouse screen, DIGSA
From the text: as §1, §2, §3, §4, §5

[3] = tested on: ivyleaf morningglory (Ipomoea hederacea, IPOHE); assay: Pre-emerge herbicidal activity, greenhouse screen, IPOHE
From the text: as §1, §2, §3, §4, §5

[4] = tested on: velvetleaf (Abutilon theophrasti, ABUTH); assay: Post-emerge herbicidal activity, greenhouse screen, ABUTH
From the text: as §1, §2, §3, §4, §5

[5] = tested on: lambsquarters (Chenopodium album, CHEAL); assay: Post-emerge herbicidal activity, greenhouse screen, CHEAL
From the text: as §1, §2, §3, §4, §5

[6] = tested on: barnyardgrass (Echinochloa crus-galli, ECHCG); assay: Post-emerge herbicidal activity, greenhouse screen, ECHCG
From the text: as §1, §2, §3, §4, §5

[7] = tested on: soybean (Glycine max L., var. Pella 86, SOY); assay: Pre-emerge crop damage, greenhouse screen, SOY
From the text: as §1, §2, §3, §4, §5

[8] = tested on: ivyleaf morningglory (Ipomoea hederacea, IPOHE); assay: Post-emerge herbicidal activity, greenhouse screen, IPOHE
From the text: as §1, §2, §3, §4, §5

[9] = tested on: green foxtail (Setaria viridis, SETVI); assay: Pre-emerge herbicidal activity, greenhouse screen, SETVI
From the text: as §1, §2, §3, §4, §5

[10] = tested on: field corn (Zea mays L., var. Dekalb 527, CORN); assay: Pre-emerge crop damage, greenhouse screen, CORN
From the text: as §1, §2, §3, §4, §5

[11] = tested on: upland rice (Oryza sp., var. Tebonnet, RICE); assay: Post-emerge crop damage, greenhouse screen, RICE
From the text: as §1, §2, §3, §4, §5

[12] = tested on: field corn (Zea mays L., var. Dekalb 527, CORN); assay: Post-emerge crop damage, greenhouse screen, CORN
From the text: as §1, §2, §3, §4, §5

[13] = tested on: redroot pigweed (Amaranthus retroflexus, AMARE); assay: Post-emerge herbicidal activity, greenhouse screen, AMARE
From the text: as §1, §2, §3, §4, §5

[14] = tested on: green foxtail (Setaria viridis, SETVI); assay: Post-emerge herbicidal activity, greenhouse screen, SETVI
From the text: as §1, §2, §3, §4, §5

[15] = tested on: redroot pigweed (Amaranthus retroflexus, AMARE); assay: Pre-emerge herbicidal activity, greenhouse screen, AMARE
From the text: as §1, §2, §3, §4, §5

[16] = tested on: common ragweed (Ambrosia artemisiifolia L., AMBEL); assay: Post-emerge herbicidal activity, greenhouse screen, AMBEL
From the text: as §1, §2, §3, §4, §5

[17] = tested on: sicklepod (Cassia obtusifolia, CASOB); assay: Post-emerge herbicidal activity, greenhouse screen, CASOB
From the text: as §1, §2, §3, §4, §5

[18] = tested on: large crabgrass (Digitaria sanguinalis, DIGSA); assay: Pre-emerge herbicidal activity, greenhouse screen, DIGSA
From the text: as §1, §2, §3, §4, §5

[19] = tested on: upland rice (Oryza sp., var. Tebonnet, RICE); assay: Pre-emerge crop damage, greenhouse screen, RICE
From the text: as §1, §2, §3, §4, §5

[20] = tested on: common ragweed (Ambrosia artemisiifolia L., AMBEL); assay: Pre-emerge herbicidal activity, greenhouse screen, AMBEL
From the text: as §1, §2, §3, §4, §5

[21] = tested on: johnsongrass (Sorghum halepense, SORHA); assay: Post-emerge herbicidal activity, greenhouse screen, SORHA
From the text: as §1, §2, §3, §4, §5

[22] = tested on: velvetleaf (Abutilon theophrasti, ABUTH); assay: Pre-emerge herbicidal activity, greenhouse screen, ABUTH
From the text: as §1, §2, §3, §4, §5

[23] = tested on: sicklepod (Cassia obtusifolia, CASOB); assay: Pre-emerge herbicidal activity, greenhouse screen, CASOB
From the text: as §1, §2, §3, §4, §5

[24] = tested on: soybean (Glycine max L., var. Pella 86, SOY); assay: Post-emerge crop damage, greenhouse screen, SOY
From the text: as §1, §2, §3, §4, §5

[25] = tested on: lambsquarters (Chenopodium album, CHEAL); assay: Pre-emerge herbicidal activity, greenhouse screen, CHEAL
From the text: as §1, §2, §3, §4, §5

[26] = tested on: barnyardgrass (Echinochloa crus-galli, ECHCG); assay: Pre-emerge herbicidal activity, greenhouse screen, ECHCG
From the text: as §1, §2, §3, §4, §5

Cc1nc2c(Cl)cc(F)c(-n3c(=O)cc(C(F)(F)F)n(C)c3=S)c2o1 [Compound 1-2]
Pre-emerge Herbicidal Activity SORHA ([1]; 63 g ai/ha): 100
Pre-emerge Herbicidal Activity SORHA ([1]; 250 g ai/ha): 100
Post-emerge Herbicidal Activity DIGSA ([2]; 63 g ai/ha): 99
Post-emerge Herbicidal Activity DIGSA ([2]; 250 g ai/ha): 100
Pre-emerge Herbicidal Activity IPOHE ([3]; 63 g ai/ha): 100
Pre-emerge Herbicidal Activity IPOHE ([3]; 250 g ai/ha): 100
Post-emerge Herbicidal Activity ABUTH ([4]; 63 g ai/ha): 100
Post-emerge Herbicidal Activity ABUTH ([4]; 250 g ai/ha): 100
Post-emerge Herbicidal Activity CHEAL ([5]; 63 g ai/ha): 100
Post-emerge Herbicidal Activity CHEAL ([5]; 250 g ai/ha): 100
Post-emerge Herbicidal Activity ECHCG ([6]; 63 g ai/ha): 100
Post-emerge Herbicidal Activity ECHCG ([6]; 250 g ai/ha): 100
Pre-emerge Herbicidal Activity SOY (crop damage) ([7]; 63 g ai/ha): 100
Pre-emerge Herbicidal Activity SOY (crop damage) ([7]; 250 g ai/ha): 100
Post-emerge Herbicidal Activity IPOHE ([8]; 63 g ai/ha): 100
Post-emerge Herbicidal Activity IPOHE ([8]; 250 g ai/ha): 100
Pre-emerge Herbicidal Activity SETVI ([9]; 63 g ai/ha): 100
Pre-emerge Herbicidal Activity SETVI ([9]; 250 g ai/ha): 100
Pre-emerge Herbicidal Activity CORN (crop damage) ([10]; 63 g ai/ha): 100
Pre-emerge Herbicidal Activity CORN (crop damage) ([10]; 250 g ai/ha): 100
Post-emerge Herbicidal Activity RICE (crop damage) ([11]; 63 g ai/ha): 75
Post-emerge Herbicidal Activity RICE (crop damage) ([11]; 250 g ai/ha): 80
Post-emerge Herbicidal Activity CORN (crop damage) ([12]; 63 g ai/ha): 25
Post-emerge Herbicidal Activity CORN (crop damage) ([12]; 250 g ai/ha): 35
Post-emerge Herbicidal Activity AMARE ([13]; 63 g ai/ha): 100
Post-emerge Herbicidal Activity AMARE ([13]; 250 g ai/ha): 100
Post-emerge Herbicidal Activity SETVI ([14]; 63 g ai/ha): 100
Post-emerge Herbicidal Activity SETVI ([14]; 250 g ai/ha): 100
Pre-emerge Herbicidal Activity AMARE ([15]; 63 g ai/ha): 100
Pre-emerge Herbicidal Activity AMARE ([15]; 250 g ai/ha): 100
Post-emerge Herbicidal Activity AMBEL ([16]; 63 g ai/ha): 100
Post-emerge Herbicidal Activity AMBEL ([16]; 250 g ai/ha): 100
Post-emerge Herbicidal Activity CASOB ([17]; 63 g ai/ha): 100
Post-emerge Herbicidal Activity CASOB ([17]; 250 g ai/ha): 100
Pre-emerge Herbicidal Activity DIGSA ([18]; 63 g ai/ha): 100
Pre-emerge Herbicidal Activity DIGSA ([18]; 250 g ai/ha): 100
Pre-emerge Herbicidal Activity RICE (crop damage) ([19]; 63 g ai/ha): 99
Pre-emerge Herbicidal Activity RICE (crop damage) ([19]; 250 g ai/ha): 100
Pre-emerge Herbicidal Activity AMBEL ([20]; 63 g ai/ha): 100
Pre-emerge Herbicidal Activity AMBEL ([20]; 250 g ai/ha): 100
Post-emerge Herbicidal Activity SORHA ([21]; 63 g ai/ha): 100
Post-emerge Herbicidal Activity SORHA ([21]; 250 g ai/ha): 100
Pre-emerge Herbicidal Activity ABUTH ([22]; 63 g ai/ha): 100
Pre-emerge Herbicidal Activity ABUTH ([22]; 250 g ai/ha): 100
Pre-emerge Herbicidal Activity CASOB ([23]; 63 g ai/ha): 100
Pre-emerge Herbicidal Activity CASOB ([23]; 250 g ai/ha): 100
Post-emerge Herbicidal Activity SOY (crop damage) ([24]; 63 g ai/ha): 100
Post-emerge Herbicidal Activity SOY (crop damage) ([24]; 250 g ai/ha): 100
Pre-emerge Herbicidal Activity CHEAL ([25]; 63 g ai/ha): 100
Pre-emerge Herbicidal Activity CHEAL ([25]; 250 g ai/ha): 100
Pre-emerge Herbicidal Activity ECHCG ([26]; 63 g ai/ha): 100
Pre-emerge Herbicidal Activity ECHCG ([26]; 250 g ai/ha): 100
